{
  "source": "paper PMC8922758",
  "about": "“A new therapeutic approach for bone metastasis in colorectal cancer: intratumoral melittin” (The Journal of Venomous Animals and Toxins Including …, 2022)",
  "key": {"[1]": {"tested_on": "HT-29 human colorectal cancer cells", "test": "MTT cytotoxicity assay", "format": "cell-based", "details": "48 h incubation", "description": "Human CRC (HT-29) was purchased from the European Collection of Authenticated Cell Cultures. It was thawed and propagated in […] flasks at 37 °C in a 5% CO2 humidified chamber (HeraCELL 150) in Dulbecco's modified Eagle's medium (DMEM; Sigma D-5648, São Paulo, Brazil) supplemented with 100 mM sodium pyruvate (Gibco, Thermo Fisher Scientific, Waltham, Massachusetts, USA), 10% fetal bovine serum (FBS) (Gibco, Fisher Scientific, Waltham, Massachusetts, USA), and 1% antibiotics (100 U/mL penicillin and 10 mg/mL streptomycin, Gibco). Cells were detached using 0.25% trypsin-EDTA (Gibco, Fisher Scientific, Waltham, Massachusetts, USA) at 37 °C for 3 min. DMEM plus 10% FBS was used to block the trypsin. The cell pellet was transferred to a new 75 cm^3 flask containing 10 mL DMEM. The culture medium was changed every 24 h. Cell viability was evaluated in the Neubauer chamber using Trypan Blue.\nTo check the viability, the culture fluid is removed and 5 × 10^5cells per well were treated with melittin (0.0625, 0.125, 0.25, 0.5, 1.0, 2.0, 35 and 70 µM). After 48 h of incubation, MTT (3-(4,5-dimethylthiazol-2-yl)-2,5-diphenyltetrazolium bromide) 0.5 mg/mL was added to each well and incubated at 37 °C for 4 h to determine the number of living cells. […] Then, the optical density was detected by a microplate reader at a wavelength of 540 nm (EPOCH, BioTech Instrument Inc., Winooski, VT, USA). […]"}, "[2]": {"tested_on": "HT-29 CRC bone metastasis xenograft", "test": "Bone metastasis in colorectal cancer mouse model, metastasis volume after intrametastatic injection", "format": "in vivo, Balb/c-nu mice", "description": "Six-week-old Balb/c-nu male mice (n = 9), weighing 23,76 ± 3,11 g, from Charles River Laboratories International Inc. (Wilmington, USA) were housed in individual ventilated racks. All animals were kept under controlled light conditions (12 h light/12 dark cycles), temperature (23 ± 1 °C), humidity (40%-60%), water, and feed ad libitum.\nThe procedures were performed in a laminar flow with rigorous asepsis and antisepsis techniques. On day 0, to perform the cell inoculation, mice were anesthetized with xylazine hydrochloride 2% plus ketamine, diluted 1:2 (0.3 mL/20 g), and administered via intramuscular injection. Briefly, cells were suspended in 40 μL of saline. A percutaneous 45° puncture was performed. Bone scarification was performed with the bevel of the hypodermic needle carefully to avoid transfixing the skullcap. Then, without needle exchange, cells (4 × 10^6 cells) were injected over the periosteal in the parietal region using a 1 mL syringe and 36G caliber hypodermic needle.\nAfter xenograft, the animals were monitored daily. Metastasis was verified and measured every day. In case of signs, the animal is euthanized immediately. Metal calipers checked the volume. The growth curves were determined using the formula: Volume = L × S^2/2, where \"S\" is the smallest diameter measured and \"L\" is the largest diameter measured.\nAfter the tumor reached 100 mm^3 (by the 19th day after xenograft), the animals were randomized into groups:\nAfter anesthesia, 1,5 mg/kg single dose of melittin was injected in the metastasis with a sterile syringe, as deep as possible, without trespassing the tumor. Without removing the needle, 50 µL of solution was applied slowly for a homogenous distribution into the metastasis, equally distributed (10 µL) in the center and cardinal points. After the administration, the needle remained in the metastasis for 20 seconds before being slowly removed to avoid extravasation."}, "[3]": {"tested_on": "HT-29 CRC bone metastasis xenograft", "test": "Histopathological analysis of the metastasis", "format": "in vivo, Balb/c-nu mice", "details": "H&E", "excerpt": "After the anesthetic procedure by the parenteral anesthetic drug overdose, the animals were euthanized. The tumor was then resected entirely for anatomopathological analysis. The external surface of the sample was inspected. The opened and cleaned specimens were immersed in formalin overnight for fixation and embedded in paraffin. Metastasis was sliced to assess bone invasion. Tumor 3 µm sections were stained with hematoxylin-eosin and subjected to optical microscopy. Metastasis diagnosis and histological features were determined."}, "[4]": {"test": "Animal follow up: signs of toxicity, body weight, organ histopathology", "format": "in vivo, Balb/c-nu mice", "description": "Signals of suffering and toxicity were carefully observed daily. The following general behaviors were observed: low activity, appetite loss, personality changes, immobility, social isolation, urine and feces consistency changes, lack of personal hygiene, and self-mutilation. Specific to mice, weight loss, dehydration, piloerection, and screams when touched were evaluated.\nMoreover, immediately after euthanized, liver, kidneys, and heart were removed from the animals for histopathological analysis, which was conducted with the same method described above."}, "[5]": {"test": "Mass spectrometry characterisation (aggregation state)", "format": "physicochemical", "details": "LC-MS, Q-Exactive Plus, C18, before application in the animals", "excerpt": "The purity and identity were confirmed by mass spectrometry using a Q-Exactive Plus (Thermo Fisher Scientific, Waltham, Massachusetts, USA). The peptide was inserted into a C18 column (EASY-Spray™ LC Columns, Thermo Fisher Scientific, Waltham, Massachusetts, USA) coupled to a liquid chromatography binary system (EASY-nLC 1,200, Thermo Scientific, Waltham, Massachusetts, USA) and eluted with a gradient of 5%-80% of solvent A (water containing 0.1% formic acid) and B (90% acetonitrile containing 0.1% formic acid) with a constant flow of 100 nL/min. The eluted was automatically inserted in the mass spectrometer, operating in positive mode, in MS mode of a full scan of 300-1500 m/z."}, "[6]": {"details": "cited from earlier work", "excerpt": "The peptide inhibited approximately 50% of the growth of metastasis. […] In a recent paper melittin could be detected in patients up to 30 days after envenomation, clearly indicating bioaccumulation corroborating the effects of the single-dose treatment. Besides, melittin has the ability to improves sy ..."}},
  "data": [
    {"smiles": "CC[C@H](C)[C@H](NC(=O)CN)C(=O)NCC(=O)N[C@@H](C)C(=O)N[C@H](C(=O)N[C@@H](CC(C)C)C(=O)N[C@@H](CCCCN)C(=O)N[C@H](C(=O)N[C@@H](CC(C)C)C(=O)N[C@H](C(=O)N[C@H](C(=O)NCC(=O)N[C@@H](CC(C)C)C(=O)N1CCC[C@H]1C(=O)N[C@@H](C)C(=O)N[C@@H](CC(C)C)C(=O)N[C@H](C(=O)N[C@@H](CO)C(=O)N[C@@H](Cc1c[nH]c2ccccc12)C(=O)N[C@H](C(=O)N[C@@H](CCCCN)C(=O)N[C@@H](CCCNC(=N)N)C(=O)N[C@@H](CCCCN)C(=O)N[C@@H](CCCNC(=N)N)C(=O)N[C@@H](CCC(N)=O)C(=O)N[C@@H](CCC(N)=O)C(N)=O)[C@@H](C)CC)[C@@H](C)CC)[C@@H](C)O)[C@@H](C)O)C(C)C)C(C)C", "note": "[melittin]", "values": [
      {"measurement": "maximum inhibition of HT-29 proliferation", "setting": "[1]; 2 µM, mean of triplicates", "result": 80, "unit": "%"},
      {"measurement": "decrease of the initial HT-29 cell number", "setting": "[1]; 0.0625-70 µM, triplicates", "result": "about 20%"},
      {"measurement": "inhibition of growing metastasis", "setting": "[2]; 1,5 mg/kg single intrametastatic dose on day 19, 2 days after the treatment, n = 6 vs untreated n = 3, p < 0.001", "result": "approximately 50%"},
      {"measurement": "metastasis reduction", "setting": "[2]; after a single intrametastatic dose, 1,5 mg/kg", "result": 53, "unit": "%"},
      {"measurement": "metastasis regrowth", "setting": "[2]; seven days after single-dose injection", "result": "metastases started growing again"},
      {"measurement": "microscopy of treated metastasis, mitosis rate", "setting": "[3]; melittin-treated animals n = 6", "result": "low mitosis rate"},
      {"measurement": "microscopy of treated metastasis, tumor cells", "setting": "[3]; last experimental day (day 27), n = 6", "result": "necrosis and absence of tumor cells"},
      {"measurement": "death or severe toxicity signs", "setting": "[4]; after intrametastatic treatment, 1,5 mg/kg single dose", "result": "no death or severe toxicity signs"},
      {"measurement": "signs of envenomation", "setting": "[4]; daily observation after 1,5 mg/kg single intrametastatic dose", "result": "did not show signs of envenomation"},
      {"measurement": "local reaction at injection site", "setting": "[4]; day 20, the day after intrametastatic injection of 1,5 mg/kg", "result": "local inflammation"},
      {"measurement": "histopathological analysis of liver, kidney and heart", "setting": "[4]; day 27, seven days after single dose, H&E", "result": "no signals of toxicity"},
      {"measurement": "body weight versus untreated animals", "setting": "[4]; three days after administration, p < 0.01, n = 6 vs n = 3", "result": "greater weight loss than those untreated"},
      {"measurement": "aggregation state by mass spectrometry", "setting": "[5]", "result": "monomeric structure without aggregation"},
      {"measurement": "time melittin is detectable in patients after envenomation", "setting": "[6]", "result": "up to 30 days"}
    ]}
  ]
}
